Values after ≈ are worked out from the molar mass of the structure shown.
Tests used:
E. faecium VRAR E315 [1] = assay: agar diffusion method, inhibition zone; format: cell-based, Enterococcus faecium; settings: Enterococcus faecium, VRARE315; E. faecium VRAR E315; MH agar, 18 hours at 37° C.; per disk 10 μl crude extract, 50 μg macrolactin, 78 μg erythromycin, 30 μg vancomycin, 10 μg ampicillin
Description: (§1) The agar diffusion method employing Mueller-Hinton (MH) agar (Difco Laboratories) was used to determine effectiveness against bacteria and yeasts. Sterile paper disks (Schleicher & Schüell, Germany) were seeded with 10 μl crude extract or with a solution of purified macrolactin (final compound concentration on the disk 50 μg) and then placed on the surface of MH-agar plates that had been seeded beforehand with a suspension of overnight culture of the test microorganisms at a concentration of 10^5 cells/ml.

Burkholderia cepacia SCV = assay: electron microscopy of cell division (FIG. 4); format: cell-based; settings: 128 μg/ml, 4 hours shake culture
Description: FIG. 4 a) to c) are electron microscope photographs of Burkholderia cepacia SCV after 4 hours growth without antibiotic and d), e) and f) in the presence of 128 μg/ml 7-O-malonyl macrolactin A;
It is thought that 7-O-malonyl macrolactin A inhibits the division of bacterial cells, which interrupts the proliferation thereof.
The electron microscope photographs moreover elucidate the bacteriostatic effect of 7-O-malonyl macrolactin A against gram-negative bacteria, an example whereof is the cell division of Burkholderia cepacia. Thus, FIGS. 4a, b and c show Burkholderia cepacia SCV (clinical isolate) in a shake culture without the addition of antibiotic ingredients (control) and FIGS. 4d, e and f after 4 hours growth in a shake culture in the presence of 128 μg/ml 7-O-malonyl macrolactin A. In the control culture, white arrowheads point to the cell division planes and the transverse walls in connection therewith. In the case of the gram-negative cells treated with 7-O-malonyl macrolactin A, (FIGS. 4e and f) black arrows indicate the cell division planes and the unnatural protuberances.

MRSA 3 = assay: MIC / MBC in liquid culture; format: cell-based, Staphylococcus aureus; settings: MRSA 3
E. faecalis ATCC 29212 = assay: MIC / MBC in liquid culture; format: cell-based, Enterococcus faecalis
Candida krusei DSM 6128 = assay: MIC / MBC in liquid culture; format: cell-based; settings: Pichia kudriavzevii
[2] = test system: Candida albicans DSM 11225; assay: MIC / MBC in liquid culture; format: cell-based; settings: DSM11225, read-out: MIC (minimal inhibitory concentration)
[3] = test system: Enterococcus faecalis ATCC 29212; assay: kinetics of growth at sub-MIC concentrations (FIG. 1C); format: cell-based; settings: E. faecalis ATCC 29212; 4 or 16 μg/ml; four hours following cultivation
Description: (§2) • FIG. 1A y-axis: Log CFU (Colony Forming Units) Cells/ml • x-axis: Time (HRS) • FIG. 1B y-axis: Log CFU (Colony Forming Units) Cells/ml • x-axis: Time (HRS) • FIG. 1C: y-axis: Log CFU (Colony Forming Units) Cells/ml • x-axis: Time (HRS) • FIG. 1D: y-axis: Log CFU (Colony Forming Units) Cells/ml • x-axis: Time (HRS) • FIG. 1E: y-axis: Log CFU (Colony Forming Units) Cells/ml • x-axis: Time (HRS) • FIG. 1F: y-axis: Log CFU (Colony Forming Units) Cells/ml • x-axis: Time (HRS) • FIG. 5A: y-axis: % Inhibition • x-axis Concentration μg/ml • FIG. 5B: y-axis: % Inhibition • x-axis Concentration μg/ml

[4] = test system: Staphylococcus aureus (#); assay: kinetics of growth at sub-MIC concentrations (FIG. 1A); format: cell-based; settings: S. aureus #, 1 or 4 μg/ml
Description: (§3) Investigation of the bacteriostatic activity of 7-O-malonyl macrolactin A required testing the effects of sub-MIC concentrations. […] 24 hours after treatment, the titre of viable cells was reduced by a factor of 100 as compared to the control without 7-O-malonyl macrolactin A.
as §2

[5] = test system: Staphylococcus aureus MRSA 3; assay: kinetics of growth at sub-MIC concentrations (FIG. 1B); format: cell-based; settings: 1 or 4 μg/ml
Description: as §3, §2

B. cepacia SCV 141 = assay: MIC / MBC in liquid culture; format: cell-based, Burkholderia cepacia; settings: Burkholderia cepacia
Description: (§4) 7-O-malonyl macrolactin A was not effective against some of the gram-negative bacteria tested by the inventors.

B. cepacia WT139 = assay: MIC / MBC in liquid culture; format: cell-based, Burkholderia cepacia
Description: as §4

[6] = test system: MRSA 2 (methicillin-resistant S. aureus, clinical isolate); assay: agar diffusion method, inhibition zone; format: cell-based, Staphylococcus aureus; settings: Staphylococcus aureus; MRSA 2; MH agar, 18 hours at 37° C.; per disk 10 μl crude extract, 50 μg macrolactin, 78 μg erythromycin, 30 μg vancomycin, 10 μg ampicillin
Description: as §1

[7] = test system: S. aureus # (own collection, methicillin-sensitive control strain); assay: agar diffusion method, inhibition zone; format: cell-based, Staphylococcus aureus; settings: Staphylococcus aureus; S. aureus # own collection; MH agar, 18 hours at 37° C.; per disk 10 μl crude extract, 50 μg macrolactin, 78 μg erythromycin, 30 μg vancomycin, 10 μg ampicillin
Description: as §1

S. aureus DSMZ 1104 = assay: agar diffusion method, inhibition zone; format: cell-based, Staphylococcus aureus; settings: Staphylococcus aureus, DSMZ1104; S. aureus DSMZ 1104; MH agar, 18 hours at 37° C.; per disk 10 μl crude extract, 50 μg macrolactin, 78 μg erythromycin, 30 μg vancomycin, 10 μg ampicillin
Description: as §1

[8] = test system: MRSA 3 (methicillin-resistant S. aureus, clinical isolate); assay: agar diffusion method, inhibition zone; format: cell-based, Staphylococcus aureus; settings: Staphylococcus aureus; MRSA 3; MH agar, 18 hours at 37° C.; per disk 10 μl crude extract, 50 μg macrolactin, 78 μg erythromycin, 30 μg vancomycin, 10 μg ampicillin
Description: as §1

E. faecium VRAR E315 [9] = assay: MIC / MBC in liquid culture; format: cell-based, Enterococcus faecium; settings: E. faecium VRAR E315

CC1CCC/C=C/C=C/C(O)CC(O)C/C=C\C=C\C(OC(=O)CC(=O)O)C/C=C/C=C\C(=O)O1 (stereo not shown) [7-O-malonyl macrolactin A]
zone of inhibition at 50 µg/disc (E. faecium VRAR E315 [1]): 15 mm | effect on cell division, electron microscope (Burkholderia cepacia SCV): anomalously sized cells were also evident | MIC (minimal inhibitory concentration) (MRSA 3): >128 µg/mL | MBC (MRSA 3; Staphylococcus aureus, pronounced inhibition of growth, read-out: MBC (minimal bacteriostatic or fungistatic concentration)): 4 µg/mL (≈ 8.19 µM) | MIC (MRSA 3; Staphylococcus aureus, read-out: MIC (minimal inhibitory concentration)): > 128 µg/mL | MIC (minimal inhibitory concentration) (E. faecalis ATCC 29212; E. faecalis ATCC 29212): 128 µg/mL (≈ 262 µM) | MBC (E. faecalis ATCC 29212; Enterococcus faecalis, ATCC29212, E. faecalis ATCC 29212, read-out: MBC (minimal bacteriostatic or fungistatic concentration)): 4 µg/mL (≈ 8.19 µM) | MIC (E. faecalis ATCC 29212; Enterococcus faecalis, ATCC29212, E. faecalis ATCC 29212, read-out: MIC (minimal inhibitory concentration)): > 128 µg/mL | MBC (Candida krusei DSM 6128; DSM6128, read-out: MBC (minimal bacteriostatic or fungistatic concentration)): 32 µg/mL (≈ 65.5 µM) | MIC (Candida krusei DSM 6128; DSM6128, read-out: MIC (minimal inhibitory concentration)): > 128 µg/mL | MIC [2]: > 128 µg/mL | effect on kinetics of growth [3]: inhibited the growth | effect on kinetics of growth ([4]; far below the MIC, first 4 hours): kills off this bacterium within the first 4 hours following dosage | growth reduced by a factor ([4]; subsequent cultivation time): 10 | titre of viable cells reduced by a factor, compared to control ([5]; 24 hours after treatment): 100 | effect on kinetics of growth ([5]; after 4 hours): almost completely inhibited | MBC (B. cepacia SCV 141; SCV141, read-out: MBC (minimal bacteriostatic or fungistatic concentration)): 32 µg/mL (≈ 65.5 µM) | MIC (B. cepacia SCV 141; SCV141, read-out: MIC (minimal inhibitory concentration)): 128 µg/mL (≈ 262 µM) | MBC (minimal bacteriostatic or fungistatic concentration) (B. cepacia WT139): not observed | MIC (minimal inhibitory concentration) (B. cepacia WT139): >128 µg/mL | MIC (B. cepacia WT139; Burkholderia cepacia, read-out: MIC (minimal inhibitory concentration)): > 128 µg/mL | zone of inhibition at 50 µg/disc [6]: 40 mm | zone of inhibition at 50 µg/disc [7]: 30 mm | zone of inhibition at 50 µg/disc (S. aureus DSMZ 1104): 26 mm | zone of inhibition at 50 µg/disc [8]: 41 mm | MIC (minimal inhibitory concentration) (E. faecium VRAR E315 [9]): >128 µg/mL | MBC (E. faecium VRAR E315 [9]; Enterococcus faecium, VRARE315, read-out: MBC (minimal bacteriostatic or fungistatic concentration)): 4 µg/mL (≈ 8.19 µM) | MIC (E. faecium VRAR E315 [9]; Enterococcus faecium, VRARE315, read-out: MIC (minimal inhibitory concentration)): > 128 µg/mL
